Common to all, as to assay: NCI-60 cell line screen, 48 h
Experiment [1] has as its system OVCAR-4 ovarian.
For experiment [2], the system named is MDA-MB-231 breast.
Experiment [3] concerns OVCAR-8 ovarian.
Experiment [4] has as its system SN12C renal.
The test system of experiment [5] is MDA-MB-435.
Experiment [6] has as its system HL-60(TB) leukemia.
For experiment [7], the system named is HOP-92 NSCLC.
Experiment [8] concerns UO-31 renal.
The test system of experiment [9] is T-47D breast.
The subject of experiment [10] is RPMI-8226 leukemia.
Experiment [11] deals with SK-MEL-28 melanoma.
Experiment [12] relates to NCI-H522 lung.
The subject of experiment [13] is TK-10 renal.
In experiment [14] the test system is A549 NSCLC.
In experiment [15] the test system is SK-MEL-5 melanoma.
Experiment [16] relates to ACHN renal.
The test system of experiment [17] is SR leukemia.
Experiment [18] concerns BT-549 breast.

SMILES strings stand for the structures.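 Exposure lasted 48 hours, with cells grown in 96-well plates and compounds tested at five concentrations. At the TGI there is no net growth.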

As for `CCOC(=O)C(C(=O)OCC)C(NC(=O)Nc1cc(C(F)(F)F)ccc1OC)(C(F)(F)F)C(F)(F)F`, the TGI in experiment [1] is 98.6 µM; in experiment [2], 39.7 µM; in experiment [3] it was > 100 µM; in experiment [4] it was 74.2 µM; in experiment [5] it was 43.8 µM; in experiment [6], 48.9 µM. Further, the TGI is 55.8 µM in experiment [7]; 39.5 µM in experiment [8]; > 100 µM in [9]; 56.8 µM in experiment [10]; > 100 µM in experiment [11]; 55.9 µM in experiment [12]. Besides, the TGI in experiment [13] is > 100 µM; in [14] it was > 100 µM; in experiment [15], 39.6 µM; in experiment [16], > 100 µM.

Consider `Cc1ccc(S(=O)(=O)N/N=C2\CC3C4CCC3C2C4)cc1` (stereo not given), for which the TGI in [1], in experiment [2], in experiment [3], in experiment [4], in [5] and in experiment [6] was > 100 µM in each case. In addition, the TGI in experiment [17], in [7], in experiment [8], in [9], in experiment [11] and in [12] was > 100 µM in each case. Besides, the TGI in experiment [13], in experiment [14], in [15] and in [16] was > 100 µM throughout.

`CC(C)(C)c1cc2c(O)c(c1)COCc1cc(C(C)(C)C)cc(c1O)COCc1cc(C(C)(C)C)cc(c1O)COC2`: the TGI in experiment [1], in experiment [3], in experiment [5], in experiment [6], in [17] and in experiment [7] was > 100 µM each time. The TGI in experiment [8], in experiment [9], in experiment [10], in experiment [11], in experiment [18] and in [13] was > 100 µM each time. For the same molecule, the TGI in experiment [14], in experiment [15] and in [16] was > 100 µM each time.

As for `Cc1cccc2c(=O)c3c(O)cc4c(c3n(C)c12)C=CC(C)(C)O4`, the TGI in experiment [1], in experiment [2], in experiment [3], in experiment [4], in experiment [5] and in [6] was > 100 µM throughout. The TGI in experiment [17] is 54.6 µM; in [7], > 100 µM; in experiment [10], 66.5 µM; in experiment [11] it was > 100 µM; in [12], > 100 µM; in experiment [18], > 100 µM. Further, the TGI in experiment [13], in experiment [14], in [15] and in experiment [16] was > 100 µM in each case.

Consider `N#C/C=C\c1ccc(-c2cc(C(F)(F)F)cc(C(F)(F)F)c2)o1`, for which the TGI in experiment [1] was > 100 µM; in [2] it was > 100 µM; in experiment [3], 58.5 µM; in [4], > 100 µM; in experiment [5], 18.5 µM; in experiment [6], 41.4 µM. Besides, the TGI was 40.7 µM in experiment [17]; 50 µM in experiment [7]; > 100 µM in experiment [8]; > 100 µM in experiment [10]; > 100 µM in experiment [11]; > 100 µM in experiment [12]. The TGI is 76.8 µM in experiment [18], > 100 µM in experiment [14], 43.1 µM in [15] and > 100 µM in experiment [16].

Take `O[C@H]1[C@@H]2OC[C@@H](O)[C@H](OCc3ccccc3)[C@@](COCc3ccccc3)(O2)[C@@H]1OCc1ccccc1`: the TGI worked out at 24.4 µM in experiment [1]; 30.9 µM in experiment [2]; 31 µM in experiment [3]; 27.9 µM in [4]; 32.1 µM in experiment [5]; 68.6 µM in experiment [6]. In addition, the TGI in experiment [17] is > 100 µM; in experiment [7], 26.3 µM; in [8], 30.6 µM; in experiment [10], 31.9 µM; in experiment [11], 27.3 µM; in [12], 27.7 µM. Also, the TGI in experiment [18] came to 32.2 µM; in experiment [13] it was 32.5 µM; in [14] it was 33.3 µM; in experiment [16], 30.4 µM.

`CCCC(=O)OC1=C(c2ccccc2)Sc2ccccc2-n2cccc21`: the TGI in experiment [1], in experiment [2], in experiment [3], in [4], in [5] and in [6] was > 10 µM throughout. Further, the TGI in experiment [17], in experiment [7], in experiment [9], in experiment [10], in [11] and in experiment [13] was > 10 µM each time. The TGI in experiment [14] and in experiment [15] was > 10 µM in each case.

With `CCCCn1c2c(n(CCCC)c1=[Se])-c1c(n(CCCC)c(=[Se])n1CCCC)S[Se][Se]S2`, the TGI in experiment [1] was 25.8 µM; in experiment [2], 32.2 µM; in experiment [3] it was 30.5 µM; in experiment [4] it was 65 µM; in [5] it was > 100 µM; in experiment [17], > 100 µM. Moreover, the TGI in [7] is 5.93 µM; in experiment [8], > 44.2 µM; in [10], > 70 µM; in experiment [11], > 100 µM; in [12], 3.34 µM; in experiment [18], > 92.5 µM. For the same molecule, the TGI in experiment [13] was 43.3 µM; in [14] it was > 61.3 µM; in experiment [15], 34.6 µM; in [16], 30.9 µM.
